Laboratory results reported in ChEMBL document CHEMBL1201862, “PubChem BioAssay data set” (2004).
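Protocol summary: plate cells (96-well), add compound at 5 concentrations, incubate 48 h, interpolate endpoints linearly. GI50 = concentration required for 50% inhibition of growth.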 The source made the active and inactive calls. Cut-off read from the data, not from the text of the source: active = GI50 up to about 1.1 µM and inactive = higher.

Tests used:
Assay in all cases: growth of human tumour cells (NCI), 48 h
A498 = tested on: A498
ACHN = tested on: ACHN
CCRF-CEM = tested on: CCRF-CEM
HCC 2998 = tested on: HCC 2998
Hs-578T = tested on: Hs-578T
KM12 = tested on: KM12
M14 = tested on: M14
MDA-MB-435 = tested on: MDA-MB-435
MOLT-4 = tested on: MOLT-4
OVCAR-4 = tested on: OVCAR-4
OVCAR-5 = tested on: OVCAR-5
OVCAR-8 = tested on: OVCAR-8
RXF 393 = tested on: RXF 393
SK-MEL-2 = tested on: SK-MEL-2
SK-OV-3 = tested on: SK-OV-3
SN12C = tested on: SN12C
SR = tested on: SR
U-251 = tested on: U-251
UO-31 = tested on: UO-31

| Compound | GI50 (A498) | GI50 (ACHN) | GI50 (CCRF-CEM) | GI50 (HCC 2998) | GI50 (Hs-578T) | GI50 (KM12) | GI50 (M14) | GI50 (MDA-MB-435) | GI50 (MOLT-4) | GI50 (OVCAR-4) | GI50 (OVCAR-5) | GI50 (OVCAR-8) | GI50 (RXF 393) | GI50 (SK-MEL-2) | GI50 (SK-OV-3) | GI50 (SN12C) | GI50 (SR) | GI50 (U-251) | GI50 (UO-31) |
| --- | --- | --- | --- | --- | --- | --- | --- | --- | --- | --- | --- | --- | --- | --- | --- | --- | --- | --- | --- |
| Cc1ccc2ccccc2c1CSc1nc(N)nc2c1ncn2CC(C)C | 26.9 µM (inactive) | 16.4 µM (inactive) | 6.15 µM (inactive) | 19.3 µM (inactive) | > 35.2 µM (inactive) | 15.2 µM (inactive) | 17.3 µM (inactive) | 10.3 µM (inactive) | 4.73 µM (inactive) | 11.1 µM (inactive) | 96.2 µM (inactive) | 40.4 µM (inactive) | 10.7 µM (inactive) | 17 µM (inactive) | 30.5 µM (inactive) | 40 µM (inactive) | 4.79 µM (inactive) | 18.2 µM (inactive) | 2.79 µM (inactive) |
| CC[C@@]1(O)C(=O)OCc2c1cc1n(c2=O)Cc2cc3c(NC(=O)CN)cccc3nc2-1 | 0.481 µM (active) | 0.0521 µM (active) | < 0.01 µM (active) | 1.96 µM (inactive) | > 36.2 µM (inactive) | 2.96 µM (inactive) | 0.098 µM (active) | 1.49 µM (inactive) | < 0.0199 µM (active) | 4.51 µM (inactive) | 7.8 µM (inactive) | 0.392 µM (active) | < 0.0463 µM (active) | 3.7 µM (inactive) | 0.13 µM (active) | < 0.0115 µM (active) | < 0.01 µM (active) | 0.0906 µM (active) | 0.191 µM (active) |
| Cc1cc(-c2nc3ccc(F)cc3s2)ccc1NC(=O)C(N)CCCCN (stereo not given) | 11 µM (inactive) | 12.7 µM (inactive) | 2.71 µM (inactive) | 1.26 µM (inactive) | 5.12 µM (inactive) | 2.02 µM (inactive) | 3.29 µM (inactive) | 2.17 µM (inactive) | 2.34 µM (inactive) | 8.28 µM (inactive) | 7.64 µM (inactive) | 5.97 µM (inactive) | 10.4 µM (inactive) | 10.1 µM (inactive) | 13.3 µM (inactive) | 7.76 µM (inactive) | 1.96 µM (inactive) | 2.11 µM (inactive) | 2.69 µM (inactive) |
| CC(C)Oc1cccc(N2C(NCCc3c[nH]c4ccccc34)=Nc3ccncc3S2(=O)=O)c1 | 9.31 µM (inactive) | 35.5 µM (inactive) | 6.15 µM (inactive) | 24.4 µM (inactive) | 3.9 µM (inactive) | 30.5 µM (inactive) | 10.4 µM (inactive) | 25.8 µM (inactive) | 3.94 µM (inactive) | 8 µM (inactive) | > 100 µM (inactive) | 57.4 µM (inactive) | 3.46 µM (inactive) | 20.8 µM (inactive) | > 100 µM (inactive) | > 100 µM (inactive) | 3.26 µM (inactive) | 17.9 µM (inactive) | 81.8 µM (inactive) |
| CC1(C)CCCCCCCCCC(C)(CCCCCCCCCCCCO)C1=O (stereo not given) | 18.7 µM (inactive) | 15 µM (inactive) | 17.4 µM (inactive) | 0.655 µM (active) | 19.7 µM (inactive) | 17.1 µM (inactive) | – | 17.7 µM (inactive) | 27.2 µM (inactive) | 17.1 µM (inactive) | 18.5 µM (inactive) | 14.5 µM (inactive) | 18.7 µM (inactive) | 17.1 µM (inactive) | 18.8 µM (inactive) | 17.4 µM (inactive) | 55.3 µM (inactive) | 17.8 µM (inactive) | 18 µM (inactive) |
| C[C@@H]1CC[C@@]2(NC1)O[C@H]1C[C@H]3[C@@H]4CC[C@H]5C[C@@H](O)CC[C@]5(C)[C@H]4CC[C@]3(C)[C@H]1[C@@H]2C | 68.7 µM (inactive) | 33.6 µM (inactive) | > 100 µM (inactive) | 37.2 µM (inactive) | 46 µM (inactive) | 27.3 µM (inactive) | 65.2 µM (inactive) | > 100 µM (inactive) | > 100 µM (inactive) | 26.8 µM (inactive) | > 100 µM (inactive) | 21.5 µM (inactive) | > 100 µM (inactive) | > 100 µM (inactive) | 27.4 µM (inactive) | 55.5 µM (inactive) | 35.5 µM (inactive) | 61.2 µM (inactive) | 42.3 µM (inactive) |
| COCn1cnc2c(=O)n(-c3ccc(C)cc3)c(=S)n(-c3ccc(C)cc3)c21 | > 100 µM (inactive) | > 100 µM (inactive) | > 100 µM (inactive) | > 100 µM (inactive) | > 100 µM (inactive) | > 100 µM (inactive) | > 100 µM (inactive) | > 100 µM (inactive) | > 100 µM (inactive) | > 100 µM (inactive) | > 100 µM (inactive) | > 100 µM (inactive) | 78.3 µM (inactive) | > 100 µM (inactive) | > 100 µM (inactive) | > 100 µM (inactive) | > 100 µM (inactive) | > 100 µM (inactive) | 38.6 µM (inactive) |
| CC1(C)CNC(c2ccc3c(c2)Cc2cc(C4=NC(C)(C)CN4)ccc2-3)=N1 | 77.8 µM (inactive) | > 100 µM (inactive) | 48.2 µM (inactive) | 26.2 µM (inactive) | 64.7 µM (inactive) | 28.1 µM (inactive) | 45.1 µM (inactive) | 32.8 µM (inactive) | 31.9 µM (inactive) | 32.9 µM (inactive) | > 100 µM (inactive) | 37 µM (inactive) | > 100 µM (inactive) | 20.1 µM (inactive) | 44.5 µM (inactive) | 36.6 µM (inactive) | 32.5 µM (inactive) | 22 µM (inactive) | > 100 µM (inactive) |
| Cc1ccc2c(O)c3c(cc2c1)C(=O)c1c2c(cc(O)c1C3=O)C1(C)OC(O2)C(O)C(N(C)C)C1O (stereo not given) | 1.28 µM (inactive) | 0.605 µM (active) | 0.154 µM (active) | 1.19 µM (inactive) | 1.02 µM (active) | 0.59 µM (active) | 1.56 µM (inactive) | 1.39 µM (inactive) | 0.124 µM (active) | 1.56 µM (inactive) | 1.97 µM (inactive) | 1.19 µM (inactive) | 1.21 µM (inactive) | 1.85 µM (inactive) | 1.09 µM (active) | 1.37 µM (inactive) | 0.0452 µM (active) | 1.16 µM (inactive) | 1.27 µM (inactive) |
| COC(=O)[C@@]12CSC[C@]1(C(=O)OC)N[C@@H](c1ccccc1O)C2 | > 100 µM (inactive) | > 100 µM (inactive) | > 100 µM (inactive) | > 100 µM (inactive) | > 100 µM (inactive) | > 100 µM (inactive) | > 100 µM (inactive) | > 100 µM (inactive) | > 100 µM (inactive) | > 100 µM (inactive) | > 100 µM (inactive) | > 100 µM (inactive) | > 100 µM (inactive) | > 100 µM (inactive) | > 100 µM (inactive) | > 100 µM (inactive) | > 100 µM (inactive) | > 100 µM (inactive) | > 100 µM (inactive) |
| CN(N=O)C(=O)Nc1ccc(C(=O)O)cc1 | > 100 µM (inactive) | > 100 µM (inactive) | > 100 µM (inactive) | > 100 µM (inactive) | > 100 µM (inactive) | > 100 µM (inactive) | > 100 µM (inactive) | > 100 µM (inactive) | > 100 µM (inactive) | > 100 µM (inactive) | > 100 µM (inactive) | > 100 µM (inactive) | > 100 µM (inactive) | > 100 µM (inactive) | > 100 µM (inactive) | > 100 µM (inactive) | > 100 µM (inactive) | > 100 µM (inactive) | > 100 µM (inactive) |
| CSc1c(C#N)c(N)nc2c(/N=N\c3ccc(Br)cc3)c(N)nn12 | 24 µM (inactive) | 7 µM (inactive) | 3.12 µM (inactive) | 8.87 µM (inactive) | 2.37 µM (inactive) | 9.02 µM (inactive) | 8.83 µM (inactive) | 9.66 µM (inactive) | 3.63 µM (inactive) | 7.21 µM (inactive) | 16.6 µM (inactive) | 5.85 µM (inactive) | 7.57 µM (inactive) | 4.48 µM (inactive) | 21.2 µM (inactive) | 6.65 µM (inactive) | 2.55 µM (inactive) | 6.58 µM (inactive) | 14.8 µM (inactive) |
| CN(C)CCN1Nc2c3ccccc3nc3c(C(=O)NCCCN(C)CCCNC(=O)c4ccc5c6c(c7ccccc7nc46)NN5CCN(C)C)ccc1c23 | 0.0659 µM (active) | < 0.01 µM (active) | 0.0274 µM (active) | < 0.01 µM (active) | 0.0352 µM (active) | < 0.01 µM (active) | 0.0353 µM (active) | < 0.01 µM (active) | < 0.01 µM (active) | 0.0266 µM (active) | 0.0322 µM (active) | < 0.01 µM (active) | 0.15 µM (active) | 0.0109 µM (active) | < 0.01 µM (active) | < 0.01 µM (active) | < 0.01 µM (active) | < 0.01 µM (active) | 0.0692 µM (active) |
| CCCCC/C=C1/CC(CO)(COC(=O)CC(C(C)C)C(C)C)OC1=O (stereo not given) | 13 µM (inactive) | 11.4 µM (inactive) | 16 µM (inactive) | 16.7 µM (inactive) | 2.28 µM (inactive) | 16.9 µM (inactive) | 14.1 µM (inactive) | 6.27 µM (inactive) | 5.42 µM (inactive) | 26.5 µM (inactive) | 15.4 µM (inactive) | 17.2 µM (inactive) | 16.3 µM (inactive) | 13.3 µM (inactive) | 18.9 µM (inactive) | 12.4 µM (inactive) | 16.6 µM (inactive) | 14.1 µM (inactive) | 11.9 µM (inactive) |
